Measurements taken from US20250215042A1, “MANNOSE-TARGETED COMPOSITIONS” (GENEVANT SCIENCES GMBH, priority 2022, published 2025).

Key:
[1] = test system: human CD14+ monocyte derived M1 macrophages; assay: Binding of biotin-mannose/AF488-streptavidin complex to M1 macrophages (flow cytometry); format: cell-based; details: for mannose ligand conjugated fluorescence (ligand binding): M1 macrophages, complex at 0.5, 0.1 and 0.02 μM, 4° C., 1.5 hours; for binding to M1 macrophages, tetra-, hexa- and octa-valent compared: FIG. 3
[2] = test system: human CD14+ monocyte derived M2 macrophages; assay: Binding of biotin-mannose/AF488-streptavidin complex to M2 macrophages (flow cytometry); format: cell-based; details: FIG. 2; for mannose ligand conjugated fluorescence (ligand binding): M2 macrophages, complex at 0.5, 0.1 and 0.02 μM, 4° C., 1.5 hours
M1 macrophages = assay: D-mannose competition with Cy3-tetra-mannose-siCD45 uptake in M1 macrophages; format: cell-based, human; details: competitor 139 mM, 5 minutes before conjugate 5 μg/mL, 1 hour; FIG. 5
Protocol: OptiMEM containing D-mannose or D-galactose was added onto testing cells to reach the final concentration of 139 mM and incubated at 37° C. for 5 minutes. […] The cells were then washed with PBS 3 times and fixed with 4% PFA for 10 minutes at room temperature. The chambers were removed from the slides and the cells were mounted with one drop of mounting media containing DAPI staining for the nuclei. The slides were covered, sealed and analyzed under fluorescent microscope.

O=C(CC[C@H](NC(=O)CCCC[C@H]1SC[C@H]2NC(=O)N[C@H]21)C(=O)NCC(=O)Nc1cc(C(=O)NCCOCCOCCO[C@H]2O[C@H](CO)[C@@H](O)[C@H](O)[C@@H]2O)cc(C(=O)NCCOCCOCCO[C@H]2O[C@H](CO)[C@@H](O)[C@H](O)[C@@H]2O)c1)NCC(=O)Nc1cc(C(=O)NCCOCCOCCO[C@H]2O[C@H](CO)[C@@H](O)[C@H](O)[C@@H]2O)cc(C(=O)NCCOCCOCCO[C@H]2O[C@H](CO)[C@@H](O)[C@H](O)[C@@H]2O)c1 [Compound 36]
binding affinity ranked by valency (mono-, di-, tetra-valent) ([1]; M1 cells, FIG. 2): highest binding affinity | mannose ligand conjugated fluorescence (ligand binding) ([1]; FIG. 2): Dose dependent increase | binding affinity ranked by valency (mono-, di-, tetra-valent) ([2]; M2 cells): highest binding affinity | mannose ligand conjugated fluorescence (ligand binding) [2]: Dose dependent increase

O=C(CCC(CCC(=O)NCC(=O)Nc1cc(C(=O)NCCOCCOCCO[C@H]2O[C@H](CO)[C@@H](O)[C@H](O)[C@@H]2O)cc(C(=O)NCCOCCOCCO[C@H]2O[C@H](CO)[C@@H](O)[C@H](O)[C@@H]2O)c1)(CCC(=O)NCC(=O)Nc1cc(C(=O)NCCOCCOCCO[C@H]2O[C@H](CO)[C@@H](O)[C@H](O)[C@@H]2O)cc(C(=O)NCCOCCOCCO[C@H]2O[C@H](CO)[C@@H](O)[C@H](O)[C@@H]2O)c1)NC(=O)CCCC[C@H]1SC[C@@H]2NC(=O)N[C@@H]21)NCC(=O)Nc1cc(C(=O)NCCOCCOCCO[C@H]2O[C@H](CO)[C@@H](O)[C@H](O)[C@@H]2O)cc(C(=O)NCCOCCOCCO[C@H]2O[C@H](CO)[C@@H](O)[C@H](O)[C@@H]2O)c1 [Compound 37]
binding to M1 macrophages, tetra-, hexa- and octa-valent compared ([1]; listed as Hexavalent mannose ligand): further increased binding | binding to M1 macrophages, tetra-, hexa- and octa-valent compared ([1]; listed as hexavalent mannose): highest binding affinity to M1 macrophages

O=C(CCCC[C@@H]1SC[C@@H]2NC(=O)N[C@@H]21)NCCCCCCOC1O[C@H](CO)[C@@H](O)[C@H](O)[C@@H]1O (stereo partly shown) [Compound 39]
mannose ligand conjugated fluorescence (ligand binding) ([1]; FIG. 2): Dose dependent increase | mannose ligand conjugated fluorescence (ligand binding) [2]: Dose dependent increase

O=C[C@@H](O)[C@@H](O)[C@H](O)[C@H](O)CO [D-mannose]
competitive inhibition of uptake of Cy3-tetra-mannose-siCD45 (M1 macrophages): substantially inhibited the uptake

O=C(CC[C@H](NC(=O)CC[C@H](NC(=O)CCCC[C@@H]1SC[C@@H]2NC(=O)N[C@@H]21)C(=O)N[C@@H](CCC(=O)NCC(=O)Nc1cc(C(=O)NCCOCCOCCO[C@H]2O[C@H](CO)[C@@H](O)[C@H](O)[C@@H]2O)cc(C(=O)NCCOCCOCCO[C@H]2O[C@H](CO)[C@@H](O)[C@H](O)[C@@H]2O)c1)C(=O)NCC(=O)Nc1cc(C(=O)NCCOCCOCCO[C@H]2O[C@H](CO)[C@@H](O)[C@H](O)[C@@H]2O)cc(C(=O)NCCOCCOCCO[C@H]2O[C@H](CO)[C@@H](O)[C@H](O)[C@@H]2O)c1)C(=O)NCC(=O)Nc1cc(C(=O)NCCOCCOCCO[C@H]2O[C@H](CO)[C@@H](O)[C@H](O)[C@@H]2O)cc(C(=O)NCCOCCOCCO[C@H]2O[C@H](CO)[C@@H](O)[C@H](O)[C@@H]2O)c1)NCC(=O)Nc1cc(C(=O)NCCOCCOCCO[C@H]2O[C@H](CO)[C@@H](O)[C@H](O)[C@@H]2O)cc(C(=O)NCCOCCOCCO[C@H]2O[C@H](CO)[C@@H](O)[C@H](O)[C@@H]2O)c1 [Compound 38]
binding to M1 macrophages, tetra-, hexa- and octa-valent compared [1]: did not show additional benefit

O=C[C@H](O)[C@@H](O)[C@@H](O)[C@H](O)CO [D-Galactose]
competitive inhibition of uptake of Cy3-tetra-mannose-siCD45 (M1 macrophages): no competitive binding effect

O=C(CCCC[C@@H]1SC[C@@H]2NC(=O)N[C@@H]21)NCC(=O)Nc1cc(C(=O)NCCOCCOCCO[C@H]2O[C@H](CO)[C@@H](O)[C@H](O)[C@@H]2O)cc(C(=O)NCCOCCOCCO[C@H]2O[C@H](CO)[C@@H](O)[C@H](O)[C@@H]2O)c1 [Compound 35]
mannose ligand conjugated fluorescence (ligand binding) ([1]; FIG. 2): Dose dependent increase | mannose ligand conjugated fluorescence (ligand binding) [2]: Dose dependent increase
